Results on two molecules are retold here after US7427625B2, “Substituted thiatriazaacenaphthylene-6-carbonitrile kinase inhibitors” (Janssen Pharmaceutica, N.V., priority 2006, dated 2008).

One experiment addresses T1, EGFR (Homo sapiens, UniProt P00533).
T1 construct: The intracellular portion of EGFR started at nucleotide 2189 (corresponding to amino acid 667) and ended at the termination codon; made in house; host or cells: Sf9 insect cells (baculovirus)
As to the kind of experiment: EGFR Kinase Assay. It counts as biochemical. Conditions: test concentration of 2 μM; read-out: EGFR percent inhibition. In outline:
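GST-fused EGFR intracellular domain (aa 667 to end), Sf9-expressed, phosphorylating biotinylated polyGluTyr with 5 μM ATP plus γ-33P ATP in Tris pH 8.0, MgCl2, vanadate, 1 mM DTT; 1 h, 30 °C, streptavidin Flashplate scintillation read. Triplicate 16-point half-log series from 200 uM; IC50 from % inhibition vs log concentration, else % inhibition at 2 μM.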

For the next experiment, the target named is T2, HER-2 (Homo sapiens, UniProt P04626).
T2 construct: the nucleotides encoding amino acids 679 to 1255 of HER-2; purchased Proqinase (Freiburg, Germany)
T2 sequence (P04626 679-1255): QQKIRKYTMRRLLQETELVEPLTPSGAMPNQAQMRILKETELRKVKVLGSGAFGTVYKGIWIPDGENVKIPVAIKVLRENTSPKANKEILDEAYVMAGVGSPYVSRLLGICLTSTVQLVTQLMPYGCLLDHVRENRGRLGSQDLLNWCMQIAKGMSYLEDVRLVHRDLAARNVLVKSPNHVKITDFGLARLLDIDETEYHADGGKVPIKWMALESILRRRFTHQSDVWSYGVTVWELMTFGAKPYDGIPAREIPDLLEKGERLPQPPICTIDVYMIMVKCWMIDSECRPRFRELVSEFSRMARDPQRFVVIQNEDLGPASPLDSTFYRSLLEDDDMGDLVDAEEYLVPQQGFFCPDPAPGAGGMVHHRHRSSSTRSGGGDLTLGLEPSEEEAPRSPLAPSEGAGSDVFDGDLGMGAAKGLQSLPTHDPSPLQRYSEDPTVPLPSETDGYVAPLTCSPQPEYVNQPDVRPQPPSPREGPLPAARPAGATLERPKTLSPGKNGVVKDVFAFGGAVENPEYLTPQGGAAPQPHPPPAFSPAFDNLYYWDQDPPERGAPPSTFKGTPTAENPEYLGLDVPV
Briefly: HER-2 Kinase Assay. It counts as biochemical. Conditions: test concentration of 1 μM; read-out: HER-2 percent inhibition. In outline:
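GST-HIS6-thrombin fusion of HER-2 residues 679–1255, assayed with biotinylated polyGluTyr, 1 μM ATP plus γ-33P-ATP, Mg2+, Mn2+ and vanadate in Hepes pH 7.5 for 1 h at 30 °C. Incorporation read by streptavidin Flashplate scintillation counting; IC50 values, or % inhibition at 1 μM.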

A further experiment deals with T3, VEGF-R2 (Rattus norvegicus, UniProt O08775).
T3 construct: polyhistidine (N)
T3 sequence (O08775 786-1343): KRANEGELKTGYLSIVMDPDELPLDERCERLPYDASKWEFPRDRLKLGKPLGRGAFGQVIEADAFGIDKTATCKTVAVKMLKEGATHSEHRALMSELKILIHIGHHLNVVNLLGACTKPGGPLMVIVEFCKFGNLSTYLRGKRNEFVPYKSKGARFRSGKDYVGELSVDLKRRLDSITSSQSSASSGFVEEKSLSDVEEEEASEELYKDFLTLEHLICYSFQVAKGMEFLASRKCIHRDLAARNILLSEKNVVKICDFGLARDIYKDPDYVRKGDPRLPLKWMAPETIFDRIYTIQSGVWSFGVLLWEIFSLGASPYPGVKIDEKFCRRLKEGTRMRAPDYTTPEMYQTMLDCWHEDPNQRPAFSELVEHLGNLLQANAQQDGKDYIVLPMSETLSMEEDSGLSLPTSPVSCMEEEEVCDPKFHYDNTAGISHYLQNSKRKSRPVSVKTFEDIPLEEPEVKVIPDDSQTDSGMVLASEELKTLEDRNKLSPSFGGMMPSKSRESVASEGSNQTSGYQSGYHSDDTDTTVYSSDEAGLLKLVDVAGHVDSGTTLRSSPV
As to the kind of experiment: VEGF-R2 Screening Assay. The experiment is classed as biochemical. Particulars: test concentration of 1 μM; read-out: VEGF-R2 percent inhibition.

In a further experiment the target is T4, Aurora-A (Mus musculus, UniProt P97477).
T4 construct: followed by the full length protein encoding the murine Aurora-A; polyhistidine (N); made in house; host or cells: sf9 insect cells
T4 sequence (P97477 1-395): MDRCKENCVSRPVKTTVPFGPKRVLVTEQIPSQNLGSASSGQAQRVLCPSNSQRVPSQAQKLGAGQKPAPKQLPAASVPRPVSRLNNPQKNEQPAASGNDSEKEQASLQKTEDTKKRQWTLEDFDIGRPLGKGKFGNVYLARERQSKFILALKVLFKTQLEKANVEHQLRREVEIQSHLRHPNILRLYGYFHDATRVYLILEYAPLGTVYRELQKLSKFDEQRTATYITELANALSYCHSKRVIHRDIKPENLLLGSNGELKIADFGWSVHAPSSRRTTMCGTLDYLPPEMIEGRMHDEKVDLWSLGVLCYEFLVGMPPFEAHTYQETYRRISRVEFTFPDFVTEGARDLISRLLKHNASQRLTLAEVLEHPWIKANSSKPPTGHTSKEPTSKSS
Briefly: Aurora-A Screening Assay. It counts as biochemical, murine. Particulars: test concentration of 1 μM; read-out: Aurora-A percent inhibition.

T1 sequence (P00533 669-1210 limits assumed): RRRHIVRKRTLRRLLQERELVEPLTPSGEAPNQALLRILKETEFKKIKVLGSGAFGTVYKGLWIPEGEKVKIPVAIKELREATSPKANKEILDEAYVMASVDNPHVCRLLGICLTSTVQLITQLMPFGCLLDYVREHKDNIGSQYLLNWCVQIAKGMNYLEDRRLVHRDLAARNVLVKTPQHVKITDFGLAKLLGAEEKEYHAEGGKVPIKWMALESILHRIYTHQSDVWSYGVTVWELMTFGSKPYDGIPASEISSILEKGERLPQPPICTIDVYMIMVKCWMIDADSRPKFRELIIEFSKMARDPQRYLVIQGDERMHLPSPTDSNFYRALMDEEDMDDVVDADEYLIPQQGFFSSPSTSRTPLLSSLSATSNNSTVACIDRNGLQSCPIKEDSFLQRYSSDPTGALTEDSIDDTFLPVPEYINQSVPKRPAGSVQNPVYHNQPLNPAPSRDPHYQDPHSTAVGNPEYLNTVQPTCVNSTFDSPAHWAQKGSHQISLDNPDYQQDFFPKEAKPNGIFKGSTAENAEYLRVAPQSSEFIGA

For the molecule `N#Cc1cnc2sc(C(=O)Nc3ccccn3)c3c2c1N(c1c(Cl)ccc2c1OCO2)C(=O)N3` [Cpd 37, 5-(5-chloro-benzo[1,3]dioxol-4-yl)-6-cyano-4-oxo-4,5-dihydro-3H-1-thia-3,5,8-triaza-acenaphthylene-2-carboxylic acid pyridin-2-ylamide], on EGFR, the inhibition at 2 µM came to 10%. Also, the inhibition at 1 µM on HER-2 was 11%; on VEGF-R2, -22%; on Aurora-A, 3%.

Consider `CC1COCC(C)N1Cc1ccc(NC(=O)c2sc3ncc(C#N)c4c3c2NC(=O)N4c2c(Cl)ccc3c2OCO3)cc1` (centres unmarked) [Cpd 24, 5-(5-chloro-benzo[1,3]dioxol-4-yl)-6-cyano-4-oxo-4,5-dihydro-3H-1-thia-3,5,8-triaza-acenaphthylene-2-carboxylic acid [4-(3,5-dimethyl-morpholin-4-ylmethyl)-phenyl]-amide], for which the inhibition at 2 µM at EGFR stood at 24%. The figures for the inhibition at 1 µM on HER-2, at VEGF-R2 and at Aurora-A were 12%, 14% and 7%, respectively.
